Measurements: ChEMBL document CHEMBL1201862, “PubChem BioAssay data set” (2004)
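Cultured in 96-well plates, cells were exposed to test compound for 48 hours across five concentrations. GI50 = concentration required for 50% inhibition of growth.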 Activity calls are given as the source filed them. Cut-off read from the data, not from the text of the source: active = GI50 up to about 1.1 µM and inactive = higher.

Key:
Experiment in all cases: growth of human tumour cells (NCI), 48 h
[1] = tested on: A549
[2] = tested on: ACHN
[3] = tested on: CCRF-CEM
[4] = tested on: KM12
[5] = tested on: MDA-MB-231
[6] = tested on: MDA-MB-435
[7] = tested on: NCI-H460
[8] = tested on: NCI/ADR-RES
[9] = tested on: OVCAR-8
[10] = tested on: RPMI-8226
[11] = tested on: SF-268
[12] = tested on: SF-539
[13] = tested on: SK-MEL-28
[14] = tested on: SN12C
[15] = tested on: SNB-19
[16] = tested on: SW-620
[17] = tested on: T47D
[18] = tested on: TK-10
[19] = tested on: U-251
[20] = tested on: UO-31

Measured: GI50

CNC1NC(=O)c2ccccc2N1Cc1ccc(F)cc1 (stereo not given)
inactive: [1] > 100 µM | [2] > 100 µM | [3] > 100 µM | [4] > 100 µM | [5] > 100 µM | [6] > 100 µM | [7] > 100 µM | [8] > 100 µM | [9] > 100 µM | [10] > 100 µM | [11] > 100 µM | [12] > 100 µM | [13] > 100 µM | [14] > 100 µM | [15] > 100 µM | [16] > 100 µM | [17] > 100 µM | [18] > 100 µM | [19] > 100 µM | [20] 11.1 µM

O=[N+]([O-])/C(Cl)=C(/C(Cl)=C(Cl)Cl)N1CCOCC1
inactive: [1] 5.73 µM | [2] 6.01 µM | [3] 1.8 µM | [4] 3.34 µM | [5] 3.86 µM | [6] 2.28 µM | [7] 4.33 µM | [8] 3.29 µM | [9] 2.56 µM | [10] 2.56 µM | [11] 6.41 µM | [12] 3.12 µM | [13] 11 µM | [14] 7.43 µM | [15] 17.6 µM | [16] 2.69 µM | [17] 2.94 µM | [18] 3.49 µM | [19] 10.7 µM | [20] 6.1 µM

COc1ccc(-c2nc(Nc3ccccc3)sc2Cc2sc(Nc3ccccc3)nc2-c2ccc(OC)cc2)cc1
inactive: [1] > 100 µM | [2] 45.1 µM | [3] 36.5 µM | [4] 8.59 µM | [5] > 100 µM | [6] 52.4 µM | [7] 51.8 µM | [8] > 100 µM | [9] > 100 µM | [10] 1.8 µM | [11] > 100 µM | [12] > 100 µM | [13] > 100 µM | [14] 27 µM | [15] > 100 µM | [16] 67.5 µM | [17] 38.5 µM | [18] > 100 µM | [19] > 100 µM | [20] > 100 µM

C=C1CN(Cc2ccccc2)[C@@H]2CCCCC[C@H](C#N)[C@H]12
inactive: [1] 78 µM | [2] > 100 µM | [3] 24.9 µM | [4] > 100 µM | [5] > 100 µM | [6] > 76 µM | [7] > 78.2 µM | [8] > 77.4 µM | [9] > 68.4 µM | [10] 22.5 µM | [11] > 100 µM | [12] > 100 µM | [13] > 100 µM | [14] > 100 µM | [15] > 100 µM | [16] > 94.8 µM | [17] > 100 µM | [18] > 100 µM | [19] > 94 µM | [20] > 63.4 µM

COC(=O)c1cc(C)ccc1CC(Cc1ccc(C)cc1)C(=O)OC (stereo not given)
inactive: [1] 12.9 µM | [2] > 100 µM | [3] 62.8 µM | [4] 10.8 µM | [5] 31.9 µM | [6] 31 µM | [7] 40.4 µM | [8] 23.7 µM | [9] > 66.8 µM | [10] 5.77 µM | [11] 7.52 µM | [12] 27.5 µM | [13] 67.1 µM | [14] > 65.5 µM | [15] > 100 µM | [16] 23.5 µM | [17] 30.8 µM | [18] > 100 µM | [19] 42.1 µM | [20] 17.1 µM

Brc1c(C#CCC(c2ccccc2)(c2ccccc2)c2ccccc2)ccc(C#CCC(c2ccccc2)(c2ccccc2)c2ccccc2)c1Br
inactive: [1] > 100 µM | [2] > 100 µM | [3] > 100 µM | [4] > 100 µM | [5] > 100 µM | [6] > 100 µM | [7] > 100 µM | [8] > 100 µM | [9] > 100 µM | [10] > 100 µM | [11] > 100 µM | [12] > 100 µM | [13] > 100 µM | [14] > 100 µM | [15] > 100 µM | [16] > 100 µM | [17] > 100 µM | [18] > 100 µM | [19] > 100 µM | [20] > 100 µM

CC(C)CCOC(=O)NC(Nc1ccc(F)cc1)(C(F)(F)F)C(F)(F)F
inactive: [1] 23.1 µM | [2] 1.66 µM | [3] 19.5 µM | [4] 5.98 µM | [5] 7.91 µM | [6] 13.7 µM | [7] 41.3 µM | [8] 52.6 µM | [9] 51.8 µM | [10] 22.1 µM | [11] 34.1 µM | [12] 16.1 µM | [13] > 100 µM | [14] 36.1 µM | [15] 62.2 µM | [16] 19 µM | [17] 6.22 µM | [18] 29.7 µM | [19] 27.3 µM | [20] 10.7 µM

Cc1ccccc1C(=N)c1ccccc1Cc1cccc2ccccc12
inactive: [1] 25.1 µM | [2] 30.4 µM | [3] 15.4 µM | [4] 16.6 µM | [5] 36.4 µM | [6] 21.9 µM | [7] 15.5 µM | [8] 25.7 µM | [9] 32 µM | [10] 7.43 µM | [11] 20.6 µM | [12] 17.6 µM | [13] 20.7 µM | [14] 19.2 µM | [15] 56.1 µM | [16] 21.2 µM | [17] 14.1 µM | [18] 59.3 µM | [19] 18.2 µM | [20] 38.5 µM

CCOC(=O)C(C)c1nc2cc(F)c(N3CCOCC3)cc2[nH]c1=O (stereo not given)
inactive: [1] > 100 µM | [2] > 100 µM | [3] > 100 µM | [4] > 100 µM | [5] > 100 µM | [6] > 100 µM | [7] 39.1 µM | [8] > 100 µM | [9] > 100 µM | [10] 83.6 µM | [11] > 100 µM | [12] > 100 µM | [13] > 100 µM | [14] > 100 µM | [15] > 100 µM | [16] > 100 µM | [17] 51.9 µM | [18] > 100 µM | [19] > 100 µM | [20] > 100 µM

COc1ccc(OC)c2c1C1CCC(=O)N1CN2C(C)=O (stereo not given)
inactive: [1] > 100 µM | [2] > 100 µM | [3] > 100 µM | [4] > 100 µM | [5] > 100 µM | [6] > 100 µM | [7] > 100 µM | [8] > 100 µM | [9] > 100 µM | [10] > 100 µM | [11] 75.5 µM | [12] > 100 µM | [13] > 100 µM | [14] > 100 µM | [15] > 100 µM | [16] > 100 µM | [17] > 100 µM | [18] > 100 µM | [19] > 100 µM | [20] > 100 µM
